Reference: patent US20060020021A1, “Use of compounds derived from 2,3-dehydronaringenin for the treatment of inflammatory processes and pharmaceutical composition containing said derivatives” (FURFURAL ESPANOL, S.A., priority 2004, published 2006)

What was measured:
[1] = tested on: paw edema in mice induced by carragenin; experiment: Test of paw edema in mice induced by carragenin (paw volume); format: in vivo, male Swiss albino mice; conditions: 70 mg/kg intraperitoneally 1 h before intradermal carragenin; significant at 1 h (p<0.025), 5 h (p<0.005), 24 h (p<0.0005)
Method: The anti-inflammatory capacity of the product of Formula (I), wherein R is a potassium cation, was tested: [drawing 3] in male Swiss albino mice of 8 to 10 weeks of age (38-44 g), from the Servicio de Animales de Laboratorio (Laboratory Animals Department) of the University of Murcia. The animals were maintained under standard conditions (temperature of 22±2° C., humidity 60±4% and light/dark cycle of 12 hours) with food and drink ad libitum. The animals were anesthetized with ether in the moment of inducing inflammation and during the measurements of the volume of the paw. Test of Paw Edema in Mice Induced by Carragenin
The inflammation was caused by intradermal injection of 0.05 ml of 1% Lambda Carrageenan (Sigma-Aldrich, Madrid, Spain) in saline solution in the plantar pad of the right hind paw. The measurement of the edema was carried out with a digital calibrator (Proinsa, Vitoria, Spain), measuring the 3 largest diameters of the paw for the volume calculation. The measurements were carried out in triplicate. The volume of the paw was measured immediately before (0 hours) and at 1, 5 and 24 hours after causing inflammation. The compound of Formula (I) was dissolved in sterile saline solution and intraperitoneally administered (70 mg/kg) 1 h before causing inflammation. […] Groups of 10 animals were used. […]

[2] = tested on: paw edema in mice induced by carragenin; experiment: Microscopic study and assessment of the injected plantar pad (edema, inflammatory infiltrate, degree 0-3); format: in vivo, male Swiss albino mice; conditions: treated group, 24 hours post-inoculation, 70 mg/kg i.p.
Method: The plantar pad area injected was extirpated at 24 hours post-inoculation; fixed in 10% buffered neutral formaldehyde, included in paraffin by the standard method, sectioned at 3 μm and stained with hematoxilin-eosin for its optical study which was carried out by two observers. The presence of edema and polynuclear neutrophils and monocytes was measured, being assessed as 0 (absence), 1 (slight), 2 (moderate) and 3 (intense) (FIGS. 3 to 6b).

**Q.** Which results are given for `O=c1cc(-c2ccc(O)cc2)oc2cc(O)cc(O)c12` [2,3-DHNA, 2,3-dehydronaringenin]?
**A.** Increases in the volume of inoculated paw, treated group vs control group [1]: lower in the treated group than in the control group; samples with moderate inflammation (degree 2) [2]: 13.3%; samples with neither edema nor inflammatory infiltrate (degree 0) [2]: 60%; samples with slight inflammation (degree 1) [2]: 26.65%
